According to patent publication US20260138961A1, “MODULATORS OF MITOCHONDRIAL DNA REPLICATION” (Pretzel Therapeutics, Inc., priority 2022, published 2026):

What follows are compounds tested against T1, POLγA:R309C (Homo sapiens, UniProt P54098, R309C) (assay: DNA polymerization assay, POLγA:R309C mutant). Conditions: stimulation of polymerase activity, primed M13mp18 ssDNA, 37° C. 2 hours.
T1 sequence (P54098 1-1239 R309C): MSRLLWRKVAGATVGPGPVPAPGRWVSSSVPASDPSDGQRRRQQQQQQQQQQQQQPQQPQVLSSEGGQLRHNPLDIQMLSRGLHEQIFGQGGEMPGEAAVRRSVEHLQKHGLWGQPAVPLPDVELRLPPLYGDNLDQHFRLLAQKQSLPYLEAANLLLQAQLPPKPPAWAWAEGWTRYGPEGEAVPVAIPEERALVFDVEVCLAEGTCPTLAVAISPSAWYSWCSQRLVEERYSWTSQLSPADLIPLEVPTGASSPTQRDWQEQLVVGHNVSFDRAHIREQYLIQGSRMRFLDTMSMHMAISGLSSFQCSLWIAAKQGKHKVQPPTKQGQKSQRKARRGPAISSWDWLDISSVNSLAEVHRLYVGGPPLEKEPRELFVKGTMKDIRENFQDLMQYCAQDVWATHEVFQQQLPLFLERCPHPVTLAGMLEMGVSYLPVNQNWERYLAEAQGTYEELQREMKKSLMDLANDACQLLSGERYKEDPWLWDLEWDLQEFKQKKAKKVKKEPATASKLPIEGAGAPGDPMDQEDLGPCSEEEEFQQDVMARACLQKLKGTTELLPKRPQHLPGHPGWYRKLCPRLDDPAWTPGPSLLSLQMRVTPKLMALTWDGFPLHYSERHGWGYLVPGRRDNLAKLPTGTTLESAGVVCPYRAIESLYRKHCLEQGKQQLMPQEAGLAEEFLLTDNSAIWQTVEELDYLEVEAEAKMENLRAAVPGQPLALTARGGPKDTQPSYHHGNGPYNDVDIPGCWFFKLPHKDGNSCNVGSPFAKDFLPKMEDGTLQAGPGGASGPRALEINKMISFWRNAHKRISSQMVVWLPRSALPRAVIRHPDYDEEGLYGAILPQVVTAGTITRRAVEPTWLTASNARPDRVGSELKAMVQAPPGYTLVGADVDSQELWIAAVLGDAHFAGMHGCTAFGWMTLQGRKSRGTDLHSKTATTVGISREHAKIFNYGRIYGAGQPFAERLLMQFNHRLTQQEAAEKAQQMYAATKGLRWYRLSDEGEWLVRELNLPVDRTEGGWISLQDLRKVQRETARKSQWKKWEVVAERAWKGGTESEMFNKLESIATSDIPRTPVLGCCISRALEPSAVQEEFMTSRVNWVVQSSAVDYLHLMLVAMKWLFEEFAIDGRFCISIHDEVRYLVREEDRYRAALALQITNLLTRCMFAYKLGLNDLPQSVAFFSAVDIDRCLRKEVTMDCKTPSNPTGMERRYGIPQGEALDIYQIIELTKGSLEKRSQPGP
T1 sequence (Q9UHN1 1-485 partner): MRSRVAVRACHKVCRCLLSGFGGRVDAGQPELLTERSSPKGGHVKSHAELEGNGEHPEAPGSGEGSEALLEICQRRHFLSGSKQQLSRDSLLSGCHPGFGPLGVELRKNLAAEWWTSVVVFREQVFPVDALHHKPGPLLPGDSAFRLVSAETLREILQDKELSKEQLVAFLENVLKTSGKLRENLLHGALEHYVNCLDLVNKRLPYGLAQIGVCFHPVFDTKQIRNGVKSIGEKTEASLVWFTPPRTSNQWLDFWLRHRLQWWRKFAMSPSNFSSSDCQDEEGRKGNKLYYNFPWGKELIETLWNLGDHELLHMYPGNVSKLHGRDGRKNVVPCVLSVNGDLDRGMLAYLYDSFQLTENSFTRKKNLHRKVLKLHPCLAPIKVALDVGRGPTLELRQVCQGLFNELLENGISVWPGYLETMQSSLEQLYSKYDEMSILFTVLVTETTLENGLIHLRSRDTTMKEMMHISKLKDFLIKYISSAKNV
Assay type: biochemical
Method: DNA Polymerization Assay to Monitor Effects on Human Wildtype POLγ and Four Disease-Causing Mutant Variants of Human POLγ.
The ability of small molecules to stimulate the polymerase activity of POLγ was analyzed in a quantitative fluorescence SYBR Green I assay with fluorescence intensity (FI) readout.
In the presence of dNTPs, wild type human POLγ and mutant derivatives thereof were incubated with single-stranded, circular M13mp18 ssDNA hybridized to a short DNA oligonucleotide that functions as a primer for initiation of DNA synthesis. POLγ and mutant derivatives thereof will extend the primer and use the M13mp18 molecule as a template to synthesize long stretches of double-stranded DNA. SYBR Green I, which is a double-stranded DNA-binding dye, was used to quantify formation of double-stranded DNA in the reaction. When bound to double-stranded DNA, SYBR Green I fluorescence increases by up to 100-fold.
The assay was performed in the 384-well plate format. Upon addition of compounds, changes in double-stranded DNA synthesis activity can be monitored by following effects on fluorescent intensity.
The reactions also contained the accessory POLγB subunit, and the human mitochondrial single-stranded DNA binding protein (mtSSB).
The DNA template mixture used in the assay contained 0.5 nM primed M13 mp18 ssDNA, 400 nM mtSSB, 0.1 mM Tris-HCl (pH 8.0), 0.1 mM dNTP, 10 mM MgCl2, 0.1 mg/mL BSA, 1 mM TCEP solution, and 0.02% Triton X-100. The DNA template mixture for the wild type protein contained either 100 μM dNTP, 1 μM dNTP, or 0.1 μM dNTP, designated in Table 2 as 100 μM, 1 μM, and 0.1 μM, respectfully.
Microplates with compounds (0.1 μL in each well) to be tested in the assay were prepared from 10 mM compound stocks in 100% DMSO, and equal amounts of DMSO without any compound were added to positive and negative control wells.
The protein mixture was dispensed (5 μL into each well) into compound plates and incubated at 37° C. for 15 minutes. After incubation, 5 μL of the DNA template mixture was dispensed into each well. The plates were then incubated at 37° C. for 2 hours.
During incubation, a combined stop buffer and detection reagent solution was prepared. The buffer contained 25 mM EDTA (pH 8.0), 0.02% Triton X-100, and SYBR Green I [Invitrogen] diluted 10,000× (for fluorescent readout). EDTA will stop the enzymatic reaction by chelating magnesium ions.

Compound	AC50 [µM]
Cc1cc(S(=O)(=O)Nc2cccc(C(=O)N3CCCC[C@H]3C)c2)c(C)cc1Cl [Example 9, (R)-4-chloro-2,5-dimethyl-N-(3-(2-methylpiperidine-1-carbonyl)phenyl)benzenesulfonamide]	2
Cc1cc(S(=O)(=O)Nc2cccc(-c3nccs3)c2)c(C)cc1Cl [Example 16, 4-chloro-2,5-dimethyl-N-(3-(thiazol-2-yl)phenyl)benzenesulfonamide]	2
Cc1cc(S(=O)(=O)Nc2cccc(-c3ccn(C)n3)c2)c(C)cc1Cl [Example 18, 4-chloro-2,5-dimethyl-N-(3-(1-methyl-1H-pyrazol-3-yl)phenyl)benzenesulfonamide]	5
Cc1cc(S(=O)(=O)Nc2cccc(C(=O)NCc3ccccc3)c2)c(C)cc1Cl [Example 11, N-benzyl-3-((4-chloro-2,5-dimethylphenyl)sulfonamido)benzamide]	6
Cc1cnc(-c2ccc(C)c(NS(=O)(=O)c3cc(C)c(Cl)cc3C)c2)s1 [Example 98, 4-chloro-2,5-dimethyl-N-(2-methyl-5-(5-methylthiazol-2-yl)phenyl)benzenesulfonamide]	> 100
Cc1ccc(C)c(S(=O)(=O)Nc2cccc(C(=O)N3CCCCC3)c2)c1 [Example 3, 2,5-dimethyl-N-(3-(piperidine-1-carbonyl)phenyl)benzene sulfonamide]	28
Cc1cc(S(=O)(=O)Nc2cccc(C(=O)N(C)C)c2)c(C)cc1Cl [Example 12, 3-((4-chloro-2,5-dimethylphenyl)sulfonamido)-N,N-dimethylbenzamide]	3
Cc1ccc(C)c(S(=O)(=O)Nc2cccc(C(=O)N[C@@H](C)C3CC3)c2)c1 [Example 8, (S)-N-(1-cyclopropylethyl)-3-((2,5-dimethylphenyl)sulfonamido)benzamide]	4
Cc1cc(S(=O)(=O)Nc2cc(F)cc(C(=O)N3CCC[C@H]3C)c2)c(C)cc1Cl [Example 13, (R)-4-chloro-N-(3-fluoro-5-(2-methylpyrrolidine-1-carbonyl)phenyl)-2,5-dimethylbenzenesulfonamide]	3
(R)-2,5-dimethyl-N-(3-(3-methylmorpholine-4-carbonyl)phenyl)benzenesulfonamide [Example 1]	12
Cc1ccc(C)c(S(=O)(=O)Nc2cccc(C(=O)N3CCOCC3C#N)c2)c1 (centres unmarked) [Example 7, N-(3-(3-cyanomorpholine-4-carbonyl)phenyl)-2,5-dimethylbenzenesulfonamide]	10
Cc1cc(S(=O)(=O)Nc2cccc(C(=O)N(C)C(C)CO)c2)c(C)cc1Cl (single isomer, unassigned) [Example 14, 3-((4-chloro-2,5-dimethylphenyl)sulfonamido)-N-(1-hydroxypropan-2-yl)-N-methylbenzamide]	13

Now from value to compound:

AC50 [µM]	Compound
> 100	Cc1cc(S(=O)(=O)Nc2cccc(-c3ncc(C#N)s3)c2)c(C)cc1Cl [Example 96, 4-chloro-N-(3-(5-cyanothiazol-2-yl)phenyl)-2,5-dimethylbenzenesulfonamide]
1	Cc1cc(S(=O)(=O)Nc2cccc(C(=O)N3CCC[C@H]3C)c2)c(C)cc1Cl [Example 10, (R)-4-chloro-2,5-dimethyl-N-(3-(2-methylpyrrolidine-1-carbonyl)phenyl)benzenesulfonamide]
11	Cc1ccc(C)c(S(=O)(=O)Nc2cccc(C(=O)N3CCCC[C@H]3C)c2)c1 [Example 5, (R)-2,5-dimethyl-N-(3-(2-methylpiperidine-1-carbonyl)phenyl)benzenesulfonamide]
2	Cc1cc(S(=O)(=O)Nc2cccc(-c3ncco3)c2)c(C)cc1Cl [Example 17, 4-chloro-2,5-dimethyl-N-(3-(oxazol-2-yl)phenyl)benzenesulfonamide]
> 100	Cc1cnc(-c2ccc(Cl)c(NS(=O)(=O)c3cc(C)c(Cl)cc3C)c2)s1 [Example 102, 4-chloro-N-(2-chloro-5-(5-methylthiazol-2-yl)phenyl)-2,5-dimethylbenzenesulfonamide]
25	Cc1ccc(C)c(S(=O)(=O)Nc2cccc(C(=O)NCC3CC3)c2)c1 [Example 4, N-(cyclopropylmethyl)-3-((2,5-dimethylphenyl)sulfonamido)benzamide]
8	Cc1cc(S(=O)(=O)Nc2ccc3c(c2)CC(=O)N3)c(C)cc1Cl [Example 185, 4-chloro-2,5-dimethyl-N-(2-oxoindolin-5-yl)benzenesulfonamide]
13	Cc1ccc(C)c(S(=O)(=O)Nc2cccc(C(=O)N3CCCC[C@@H]3C)c2)c1 [Example 6, (S)-2,5-dimethyl-N-(3-(2-methylpiperidine-1-carbonyl)phenyl)benzenesulfonamide]
8	Cc1ccc(C)c(S(=O)(=O)Nc2cccc(C(=O)N3CCCCC3C#N)c2)c1 (centres unmarked) [Example 2, N-(3-(2-cyanopiperidine-1-carbonyl)phenyl)-2,5-dimethylbenzenesulfonamide]
58	Cc1cnc(-c2cc(NS(=O)(=O)c3cc(C)c(Cl)cc3C)ccc2C)s1 [Example 103, 4-chloro-2,5-dimethyl-N-(4-methyl-3-(5-methylthiazol-2-yl)phenyl)benzenesulfonamide]
3	Cc1cc(S(=O)(=O)Nc2cccc(-c3nccn3C)c2)c(C)cc1Cl [Example 19, 4-chloro-2,5-dimethyl-N-(3-(1-methyl-1H-imidazol-2-yl)phenyl)benzenesulfonamide]
